How the values were obtained:
[1] = skin permeation ex vivo, Franz-type diffusion cell; type: in vitro ADME, human; conditions: free acid recovered in dermis and receptor fluid
Experimental: Skin permeation studies were conducted with various formulations of latanoprost, ex vivo, on fresh human skin. Fresh human skin was obtained from live donors undergoing abdominoplasty and mounted on a standard (Franz-type) diffusion cell apparatus. All test articles contained 0.8% (weight/weight) of latanoprost. Each test article (8 mg) was uniformly applied to a skin surface of 0.8 cm^2. All formulations were tested on skin from at least two different donors. Treated skin was left open to the atmosphere to simulate clinical conditions. Receptor fluid flowed continuously over 24 hours and was collected in fractions. The amount of active drug metabolite (latanoprost free acid) in these fractions was determined by Liquid Chromatography/Tandem Mass Spectrometry. The following amounts of drug were recovered from receptor fluid over 24 hours:
Skin permeation studies were conducted with various formulations of latanoprost 0.5%, ex vivo, on fresh human skin, as described in the foregoing example. All formulations comprised ethanol (70%) and oleic acid (1.5%, 3% or 4.5%) with the remainder essentially as propylene glycol (28.5%, 27% or 25.5%, respectively). All studies were run in duplicate.

abdominal fat = assay: randomized placebo-controlled trial for reduction of abdominal fat; type: in vivo, human; conditions: compared to vehicle alone
Source text: The following experiment describes a randomized, placebo-controlled, double-blind trial in human subjects to test whether the safety and efficacy of a PFPRA pharmaceutical composition for reduction of abdominal fat. The composition can be, for example, as described in Example 1, wherein the PFPRA is latanoprost. Alternatively, the PFPRA can be tafluprost. Other alternatives within the scope of the invention can also be used. Eligible subjects (for example, n=60) with excess anterior abdominal fat are entered into a randomized double-blind study. […] Subjects are instructed to apply, once a day, a metered dose, for example, of 2 ml over a 200 cm^2 application area on the anterior abdomen. The application area is standardized, for example, by use of a template that is centered on the umbilicus. Serial clinical assessments, subjective patient assessments, photographs, and magnetic resonance imaging (MRI) scans are performed prior to the first dose and then, for example, at 6 and 12 weeks. Treatment continues, for example, for a total of 12 weeks.

SMILES	conversion of prodrug in skin samples [1]	satisfaction with cosmetic appearance (abdominal fat)
CC(C)OC(=O)CCC/C=C\C[C@@H]1[C@@H](CC[C@@H](O)CCc2ccccc2)[C@H](O)C[C@@H]1O [latanoprost]	converted (hydrolyzed) to the active metabolite, latanoprost free acid	more satisfied with their cosmetic appearance
CC(C)OC(=O)CCC/C=C\C[C@@H]1[C@@H](/C=C/C(F)(F)COc2ccccc2)[C@H](O)C[C@@H]1O [tafluprost]	–	more satisfied with their cosmetic appearance

From patent US10869874B2, “Methods and compositions for topical delivery of prostaglandins to subcutaneous fat” (Topokine Therapeutics, Inc., priority 2013, dated 2020)
